{
  "source": "patent US6500849B1",
  "about": "“1-alkyl-, 1-alkenyl-, and 1-alkynylaryl-2-amino 1,3-propanediols and related compounds” (Aventis Pharmaceuticals Inc., priority 1990, dated 2002)",
  "key": {"[1]": {"tested_on": "Fusobact. varium", "experiment": "Anerobic antibacterial assay (agar dilution, Wilkins-Chalgren agar)", "type": "cell-based", "conditions": "anaerobic, 48 hours at 37° C."}, "[2]": {"tested_on": "Bact. thetaiotaom.", "experiment": "Anerobic antibacterial assay (agar dilution, Wilkins-Chalgren agar)", "type": "cell-based", "conditions": "anaerobic, 48 hours at 37° C."}, "[3]": {"tested_on": "Klebsiella spp.", "experiment": "Aerobic antibacterial assay (agar dilution, Mueller-Hinton agar)", "conditions": "aerobic, 24 hours at 37° C."}, "[4]": {"tested_on": "Peptostr. anaerobius", "experiment": "Anerobic antibacterial assay (agar dilution, Wilkins-Chalgren agar)", "type": "cell-based", "conditions": "Peptostr. anaerobius 932; anaerobic; 48 hours at 37° C."}, "[5]": {"tested_on": "Bact. vulgatus", "experiment": "Anerobic antibacterial assay (agar dilution, Wilkins-Chalgren agar)", "type": "cell-based", "conditions": "Bact. vulgatus 1446; anaerobic; 48 hours at 37° C."}, "[6]": {"tested_on": "Strept. pyogenes", "experiment": "Aerobic antibacterial assay (agar dilution, Mueller-Hinton agar)", "conditions": "aerobic, 24 hours at 37° C."}, "[7]": {"tested_on": "Bact. ovatus", "experiment": "Anerobic antibacterial assay (agar dilution, Wilkins-Chalgren agar)", "type": "cell-based", "conditions": "Bact. ovatus 103; anaerobic; 48 hours at 37° C."}, "[8]": {"tested_on": "S. typhimurium", "experiment": "Aerobic antibacterial assay (agar dilution, Mueller-Hinton agar)", "conditions": "S. typhimurium; aerobic; 24 hours at 37° C."}, "[9]": {"tested_on": "E. coli", "experiment": "Aerobic antibacterial assay (agar dilution, Mueller-Hinton agar)", "type": "cell-based"}, "[10]": {"tested_on": "Clost. tetani", "experiment": "Anerobic antibacterial assay (agar dilution, Wilkins-Chalgren agar)", "type": "cell-based", "conditions": "Clost. tetani 19406; anaerobic; 48 hours at 37° C."}, "[11]": {"tested_on": "E. cloacae", "experiment": "Aerobic antibacterial assay (agar dilution, Mueller-Hinton agar)", "conditions": "aerobic, 24 hours at 37° C."}, "[12]": {"tested_on": "Staph. aureus", "experiment": "Aerobic antibacterial assay (agar dilution, Mueller-Hinton agar)", "conditions": "aerobic, 24 hours at 37° C."}, "[13]": {"biological_target": "Protein kinase C", "experiment": "Protein kinase C assay (32P incorporation into Type III histone)", "type": "biochemical, rat", "conditions": "rat brain protein kinase C; phosphatidylserine/diacylglycerol stimulated; read-out: Protein Kinase Inhibitory Activity IC50", "procedure": "(see U. Kikkawa, et al., Biochemical and Biophysical Research Communications, 135, 636 (1986) and R. M. Bell, et al. “Methods in Enzymology, Hormone Action,” Part J, P.M. Conn, Ed., Academic Press, Inc., New York, N.Y. 1986, page 353). Protein kinase C enzyme extract was prepared from the brain of male Wistar rats weighing 180 to 200 g and purified by the method of U. Kikkawa, et al., ibid. 636. The purified extract was stored at −80° C., and aliquots were used in the protein kinase C assay performed by a modification of the method of R. M. Bell, et al., ibid. al 354. To perform the assay, duplicate aliquots of duplicate samples are employed. Basal or unstimulated protein kinase C, phosphatidylserine/diacylglycerol stimulated protein kinase C, and test samples are run in each assay. […] The assay tubes were allowed to warm to 25° C. and an 8 μl mixture of adenosine 5′-triphosphate (100 μM) and ^32P-adenosine triphosphate (1 to 2×10^5 counts per minute) was added to each tube for a final volume of 80 μl per tube. After 2 min, the reaction (the incorporation of phosphorous into Type III histone) was terminated by spotting the assay mixture on phosphocellulose paper. The spots are cut out of the paper and the radioactivity (counts per min) of each spot was determined in a scintillation counter."}, "[14]": {"tested_on": "female Swiss Webster mice", "experiment": "Arachidonic acid-induced ear edema assay", "type": "in vivo", "conditions": "1 mg/ear topical, arachidonic acid 4 mg/ear", "procedure": "In the arachidonic acid-induced ear edema assay, the test compound was dissolved in 30/70 propylene glycol/ethanol and was applied to both ears of groups of 6 female Swiss Webster mice, which were housed together in a cage under standard conditions for 1 week prior to use with food and water ad lib, at a volume of 20 μl so that a total of 1.0 mg of test compound was delivered to each ear over the inner and outer surfaces. The same volume (20 μl) of vehicle was applied to each ear of a control group of mice. After 30 minutes, arachidonic acid was applied to the right ear of each mouse of each group in the amount of 4 mg/ear. Vehicle was applied to the left ear of each mouse of each group at a volume of 20 μl/ear. After an additional hour, the mice were sacrificed and a 4 mm plug was taken from each ear and weighed. The difference between the right and left ear plugs was determined for each animal. The antiinflammatory activity of the test compound is expressed as the mean percent change in the ear plug weight of the treated animals relative to the mean percent change in weights of control animals' ear. Antiinflammatory activity of representative compounds of the present invention as determined in this assay are presented below in Table 3."}, "[15]": {"tested_on": "Clost. perfringens", "experiment": "microbe, parasite or virus in culture", "type": "cell-based", "conditions": "Clost. perfringens 194; anaerobic; 48 hours at 37° C."}, "[16]": {"tested_on": "Strept. faecium", "experiment": "Aerobic antibacterial assay (agar dilution, Mueller-Hinton agar)", "conditions": "Strept. faecium D; aerobic; 24 hours at 37° C."}, "[17]": {"tested_on": "Bact. distasonis", "experiment": "Anerobic antibacterial assay (agar dilution, Wilkins-Chalgren agar)", "type": "cell-based", "conditions": "Bact. distasonis 1366; anaerobic; 48 hours at 37° C."}, "[18]": {"tested_on": "female Swiss Webster mice", "experiment": "TPA-induced ear edema assay", "type": "in vivo", "conditions": "10 μg/ear topical, after about 5 hours", "procedure": "In the TPA-induced ear edema assay, TPA (12-O-tetradecanoylphorbol-13-acetate) was dissolved in 30/70 propylene glycol/ethanol and was applied to the right ear of groups of 6 female Swiss Webster mice, which were housed together in a cage under standard conditions for 1 week prior to use with food and water ad lib, at a volume of 20 μl so that a total of 10 μg of TPA is delivered to the inner and outer surfaces of the ear. The test compound was dissolved in the vehicle and was applied to the right ear (the inner and outer surface) at a volume of 20 μl so that a total of 10 μg of the compound was delivered to the ear. After about 5 hours, the animals were sacrificed, a 4 mm diameter plug was taken from each ear and weighed. The difference between the right and left ear plug weights for each animal was determined. The antiinflammatory activity of the test compound is expressed as the mean percent change in the ear plug weight of the treated animals compared to the mean percent change in the plug weight of the control animals."}, "[19]": {"tested_on": "Propionibact. acnes", "experiment": "Anerobic antibacterial assay (agar dilution, Wilkins-Chalgren agar)", "type": "cell-based", "conditions": "anaerobic, 48 hours at 37° C."}, "[20]": {"tested_on": "Bact. fragilis", "experiment": "Anerobic antibacterial assay (agar dilution, Wilkins-Chalgren agar)", "type": "cell-based", "conditions": "anaerobic, 48 hours at 37° C."}},
  "data": [
    {"smiles": "CCCCCCCCCCCCC/C=C/[C@@H](O)[C@@H](N)CO", "note": "[D-erythro-sphingosine, reference compound]", "values": [
      {"measurement": "Antibacterial activity (MIC, mg/l)", "setting": "[1]; Fusobact. varium 3085", "result": 25.0, "unit": "mg/L"},
      {"measurement": "Antibacterial activity (MIC, mg/l)", "setting": "[1]; Fusobact. varium 5262", "result": 25.0, "unit": "mg/L"},
      {"measurement": "Antibacterial activity (MIC, mg/l)", "setting": "[2]; Bact. thetaiotaom. 123", "result": 25.0, "unit": "mg/L"},
      {"measurement": "Antibacterial activity (MIC, mg/l)", "setting": "[2]; Bact. thetaiotaom. 1428", "result": 25.0, "unit": "mg/L"},
      {"measurement": "Antibacterial activity (MIC, mg/l)", "setting": "[2]; Bact. thetaiotaom. 1445", "result": 25.0, "unit": "mg/L"},
      {"measurement": "Antibacterial activity (MIC, mg/l)", "setting": "[3]; Klebsiella spp. 1082E", "result": 25.0, "unit": "mg/L"},
      {"measurement": "Antibacterial activity (MIC, mg/l)", "setting": "[3]; Klebsiella spp. 1522E", "result": ">100.0", "unit": "mg/L"},
      {"measurement": "Antibacterial activity (MIC, mg/l)", "setting": "[4]", "result": 12.5, "unit": "mg/L"},
      {"measurement": "Antibacterial activity (MIC, mg/l)", "setting": "[5]", "result": 25.0, "unit": "mg/L"},
      {"measurement": "Antibacterial activity (MIC, mg/l)", "setting": "[6]; Strept. pyogenes 77 A", "result": 25.0, "unit": "mg/L"},
      {"measurement": "Antibacterial activity (MIC, mg/l)", "setting": "[6]; Strept. pyogenes 308 A", "result": 12.5, "unit": "mg/L"},
      {"measurement": "Antibacterial activity (MIC, mg/l)", "setting": "[7]", "result": 12.5, "unit": "mg/L"},
      {"measurement": "Antibacterial activity (MIC, mg/l)", "setting": "[8]", "result": ">100.0", "unit": "mg/L"},
      {"measurement": "Antibacterial activity (MIC, mg/l)", "setting": "[9]; E. coli 1507E, 24 hours at 37° C.", "result": ">100.0", "unit": "mg/L"},
      {"measurement": "Antibacterial activity (MIC, mg/l)", "setting": "[9]; E. coli DC0, 24 hours at 37° C.", "result": ">100.0", "unit": "mg/L"},
      {"measurement": "Antibacterial activity (MIC, mg/l)", "setting": "[9]; E. coli DC2, 24 hours at 37° C.", "result": 25.0, "unit": "mg/L"},
      {"measurement": "Antibacterial activity (MIC, mg/l)", "setting": "[9]; E. coli O 78, 24 hours at 37° C.", "result": ">100.0", "unit": "mg/L"},
      {"measurement": "Antibacterial activity (MIC, mg/l)", "setting": "[9]; E. coli TEM, 24 hours at 37° C.", "result": ">100.0", "unit": "mg/L"},
      {"measurement": "Antibacterial activity (MIC, mg/l)", "setting": "[10]", "result": 50.0, "unit": "mg/L"},
      {"measurement": "Antibacterial activity (MIC, mg/l)", "setting": "[11]; E. cloacae 1321E", "result": 50.0, "unit": "mg/L"},
      {"measurement": "Antibacterial activity (MIC, mg/l)", "setting": "[11]; E. cloacae P99", "result": ">100.0", "unit": "mg/L"},
      {"measurement": "Antibacterial activity (MIC, mg/l)", "setting": "[12]; Staph. aureus 285", "result": 25.0, "unit": "mg/L"},
      {"measurement": "Antibacterial activity (MIC, mg/l)", "setting": "[12]; Staph. aureus 503", "result": 25.0, "unit": "mg/L"},
      {"measurement": "Antibacterial activity (MIC, mg/l)", "setting": "[12]; Staph. aureus SG511", "result": 25.0, "unit": "mg/L"},
      {"measurement": "IC50", "setting": "[13]", "result": 6.7, "unit": "µM"},
      {"measurement": "Antiinflammatory Activity Percent Decrease in Ear Plug Weight at 1 mg/ear", "setting": "[14]", "result": "+9%"},
      {"measurement": "Antibacterial activity (MIC, mg/l)", "setting": "[15]", "result": 6.25, "unit": "mg/L"},
      {"measurement": "Antibacterial activity (MIC, mg/l)", "setting": "[16]", "result": 25.0, "unit": "mg/L"},
      {"measurement": "Antibacterial activity (MIC, mg/l)", "setting": "[17]", "result": 12.5, "unit": "mg/L"},
      {"measurement": "Antiinflammatory Activity Percent Decrease in Ear Plug Weight at 10 μg/ear", "setting": "[18]", "result": 46, "unit": "%"},
      {"measurement": "Antibacterial activity (MIC, mg/l)", "setting": "[19]; Propionibact. acnes 6919", "result": 12.5, "unit": "mg/L"},
      {"measurement": "Antibacterial activity (MIC, mg/l)", "setting": "[19]; Propionibact. acnes 6922", "result": 12.5, "unit": "mg/L"},
      {"measurement": "Antibacterial activity (MIC, mg/l)", "setting": "[20]; Bact. fragilis 312", "result": 25.0, "unit": "mg/L"},
      {"measurement": "Antibacterial activity (MIC, mg/l)", "setting": "[20]; Bact. fragilis 960", "result": 12.5, "unit": "mg/L"},
      {"measurement": "Antibacterial activity (MIC, mg/l)", "setting": "[20]; Bact. fragilis 1313", "result": 25.0, "unit": "mg/L"},
      {"measurement": "Antibacterial activity (MIC, mg/l)", "setting": "[20]; Bact. fragilis 17390", "result": 25.0, "unit": "mg/L"},
      {"measurement": "Antibacterial activity (MIC, mg/l)", "setting": "[20]; Bact. fragilis 18125", "result": 25.0, "unit": "mg/L"},
      {"measurement": "Antibacterial activity (MIC, mg/l)", "setting": "[20]; Bact. fragilis 19016", "result": 25.0, "unit": "mg/L"}
    ]}
  ]
}
